Measured values taken from patent US20180282281A1, “IMMUNOREGULATORY AGENTS” (FLEXUS BIOSCIENCES, INC., priority 2014, published 2018).

The compounds below were run against T1, human IDO1 (Homo sapiens, UniProt P14902) (assay: HEK293 human IDO1 cell-based IDO inhibition assay). Conditions: read-out: HEK Human IDO-1 Potency.
T1 construct: expressed in transfected cells
Procedure: 1HEK293 cells were transfected with a pCDNA-based mammalian expression vector harboring human IDO1 cDNA (NM 002164.2) by electroporation. They were cultured in medium (DMEM with 10% FBS) containing 1 mg/ml G418 for two weeks. Clones of HEK293 cells that stably expressed human IDO1 protein were selected and expanded for IDO inhibition assay.
The human IDOL/HEK293 cells were seeded at 10,000 cells per 50 μL per well with RPMI/phenol red free media contains 10% FBS in a 384-well black wall clear bottom tissue culture plate (Matrix Technologies LLC) 100 nL of certain concentration of compound was then added to each well using ECHO liquid handling systems. The cells were incubated for 20 hours in 37° C. incubator with 5% CO2.
The compound treatments were stopped by adding Trichloroacetic Acid (Sigma-Aldrich) to a final concentration at 0.2%. The cell plate was further incubated at 50° C. for 30 minute. The equal volume supernatant (20 μL) and 0.2% (w/v) Ehrlich reagent (4-dimethylaminobenzaldehyde, Sigma-Aldrich) in glacial acetic acid were mixed in a new clear bottom 384-well plate. This plate was then incubated at room temperature for 30 minute. The absorbance at 490 nm was measured on Envision plate reader.

T1 sequence (P14902 whole entry): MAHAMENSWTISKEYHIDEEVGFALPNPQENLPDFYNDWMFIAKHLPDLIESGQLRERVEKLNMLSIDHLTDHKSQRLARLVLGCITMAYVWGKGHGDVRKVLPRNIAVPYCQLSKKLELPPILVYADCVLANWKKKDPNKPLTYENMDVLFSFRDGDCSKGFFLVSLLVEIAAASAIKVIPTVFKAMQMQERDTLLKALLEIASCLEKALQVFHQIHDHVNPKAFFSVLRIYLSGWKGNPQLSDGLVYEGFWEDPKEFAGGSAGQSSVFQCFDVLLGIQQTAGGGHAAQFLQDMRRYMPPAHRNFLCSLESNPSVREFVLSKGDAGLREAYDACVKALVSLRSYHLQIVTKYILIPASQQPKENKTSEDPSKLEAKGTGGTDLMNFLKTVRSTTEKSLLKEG

IC50 [nM]	Compound
< 50	CC(C(=O)O)c1ccc(C[C@@H](C(=O)Nc2ccc(Cl)cc2)[C@H]2CC[C@@H](c3ccnc4ccc(F)cc43)CC2)cc1 (mixture of isomers) [Example 137, 2-(4-((R)-3-((4-Chlorophenyl)amino)-2-((cis)-4-(6-fluoroquinolin-4-yl)cyclohexyl)-3-oxopropyl)phenyl)propanoic Acid]
< 50	CCC(C(=O)Nc1ccc(Cl)cc1)C1CCC(c2ccnc3ccc(F)cc23)CC1 (mixture of isomers) [Example 154, N-(4-Chlorophenyl)-2-(4-(6-fluoroquinolin-4-yl)cyclohexyl)butanamide]
< 250	CCC(C(=O)Nc1ccc(Cl)cc1)[C@H]1CC[C@H](Oc2ccnc3cc(C(F)(F)F)ccc23)CC1 (mixture of isomers) [Example 83, (±)—N-(4-Chlorophenyl)-2-((trans)-4-((7-(trifluoromethyl)quinolin-4-yl)oxy)cyclohexyl)butanamide]
> 250	CCC(C(=O)Nc1ccc(Cl)cc1)[C@H]1CC[C@H](Oc2cc(C(F)(F)F)nc3ccccc23)CC1 (mixture of isomers) [Example 84, (±)—N-(4-Chlorophenyl)-2-((trans)-4-((2-(trifluoromethyl)quinolin-4-yl)oxy)cyclohexyl)butanamide]
< 50	CCC(C(=O)Nc1ccc(Cl)cc1)[C@H]1CC[C@H](Oc2ccnc3ccccc23)CC1 (mixture of isomers) [Example 85, (±)—N-(4-Chlorophenyl)-2-((trans)-4-(quinolin-4-yloxy)cyclohexyl)butanamide]
< 50	CCC(C(=O)Nc1ccc(Cl)cc1)[C@H]1CC[C@@H](Oc2cc(C(F)(F)F)nc3ccccc23)CC1 (mixture of isomers) [Example 88, (±)—N-(4-Chlorophenyl)-2-((cis)-4-((2-(trifluoromethyl)quinolin-4-yl)oxy)cyclohexyl)butanamide]
> 250	CCC(C(=O)Nc1ccc(Cl)cc1)[C@H]1CC[C@@H](Oc2ccnc3ccc(C(F)(F)F)cc23)CC1 (mixture of isomers) [Example 89, (±)—N-(4-Chlorophenyl)-2-((cis)-4-((6-(trifluoromethyl)quinolin-4-yl)oxy)cyclohexyl)butanamide]
> 250	Cc1ccc(NC(=O)C(C)N2CCC(Oc3ccc4nccc(Cl)c4c3)CC2)cc1 (racemic) [Example 92, (±)-2-(4-((4-Chloroquinolin-6-yl)oxy)piperidin-1-yl)-N-(p-tolyl)propanamide]
< 50	CC(C(=O)Nc1ccc(Cl)cc1)N1CCC(Oc2ccnc3ccc(F)cc23)CC1 (racemic) [Example 96, (±)—N-(4-Chlorophenyl)-2-(4-((6-fluoroquinolin-4-yl)oxy)piperidin-1-yl)propanamide]
> 250	CC(C)C(C(=O)Nc1ccc(Cl)cc1)N1CCC(Oc2ccnc3ccc(F)cc23)CC1 (racemic) [Example 102, (±)—N-(4-Chlorophenyl)-2-(4-((6-fluoroquinolin-4-yl)oxy)piperidin-1-yl)-3-methylbutanamide]
> 250	CC(C(=O)Nc1ccc(Cl)cc1)N1CCN(c2ccnc3ccc(F)cc23)CC1 (racemic) [Example 126, (±)—N-(4-Chlorophenyl)-2-(4-(6-fluoroquinolin-4-yl)piperazin-1-yl)propanamide]
> 250	CC(C(=O)Nc1ccc(Br)cc1)N1CCN(c2ccnc3ccc(F)cc23)CC1 (racemic) [Example 127, (±)—N-(4-Bromophenyl)-2-(4-(6-fluoroquinolin-4-yl)piperazin-1-yl)propanamide]
> 250	CC(C(=O)Nc1ccccc1)N1CCN(c2ccnc3ccc(F)cc23)CC1 (racemic) [Example 128, (±)-2-(4-(6-Fluoroquinolin-4-yl)piperazin-1-yl)-N-phenylpropanamide]
< 50	CCC(C(=O)Nc1ccc(Cl)cc1)N1CCN(c2ccnc3ccc(F)cc23)CC1 (racemic) [Example 131, (±)—N-(4-Chlorophenyl)-2-(4-(6-fluoroquinolin-4-yl)piperazin-1-yl)butanamide]
> 250	CCC(C(=O)Nc1ccccc1)N1CCN(c2ccnc3ccc(F)cc23)CC1 (racemic) [Example 132, (±)-2-(4-(6-Fluoroquinolin-4-yl)piperazin-1-yl)-N-phenylbutanamide]
> 250	COCC(C(=O)Nc1ccc(Cl)cc1)N1CCN(c2ccnc3ccc(F)cc23)CC1 (racemic) [Example 133, (±)—N-(4-Chlorophenyl)-2-(4-(6-fluoroquinolin-4-yl)piperazin-1-yl)-3-methoxypropanamide]
< 250	COCC(C(=O)Nc1ccc(F)cc1)N1CCN(c2ccnc3ccc(F)cc23)CC1 (racemic) [Example 134, (±)—N-(4-Fluorophenyl)-2-(4-(6-fluoroquinolin-4-yl)piperazin-1-yl)-3-methoxypropanamide]

IC50 [nM]	Compound
< 250	CC(C(=O)Nc1ccc(Cl)cc1)C1CCC(c2ccnc3ccnn23)CC1 (racemic) [Example 143, (±)—N-(4-chlorophenyl)-2-(cis- and trans-4-(pyrazolo[1,5-a]pyrimidin-7-yl)cyclohexyl)propanamide]
< 50	CC(C(=O)Nc1ccc(Cl)cc1)C1CCC(c2ccnc3ncccc23)CC1 (racemic) [Example 147, (±)-2-(Cis- and trans-4-(1,8-naphthyridin-4-yl)cyclohexyl)-N-(4-chlorophenyl)propanamide]
< 50	CC(C(=O)Nc1ccc(Cl)cc1)C1CCC(c2ccnc3cn[nH]c23)CC1 (racemic) [Example 149, (±)-2-(Cis- and trans-4-(1H-pyrazolo[4,3-b]pyridin-7-yl)cyclohexyl)-N-(4-chlorophenyl)propanamide]
< 50	CC(C(=O)Nc1ccc(Cl)cc1)[C@H]1CC[C@H](Oc2ccnc3ncccc23)CC1 (mixture of isomers) [Example 153, (±)-2-((trans)-4-((1,8-Naphthyridin-4-yl)oxy)cyclohexyl)-N-(4-chlorophenyl)propanamide]
< 50	CC(C(=O)Nc1ccc(Cl)cc1)[C@]1(F)CC[C@H](c2ccnc3ccc(F)cc32)CC1 (mixture of isomers) [Example 233, (+/−)—N-(4-chlorophenyl)-2-(trans-1-fluoro-4-(6-fluoroquinolin-4-yl)cyclohexyl) propanamide]
> 250	CCC(C(=O)Nc1ccc(Cl)cc1)C1CCN(c2ccnc3ccc(F)cc23)CC1 (racemic) [Example 243, (±)—N-(4-Chlorophenyl)-2-(1-(6-fluoroquinolin-4-yl)piperidin-4-yl)butanamide]
< 250	CCCC(C(=O)Nc1ccc(Cl)cc1)N1CCN(c2ccnc3ccc(F)cc23)CC1 (racemic) [Example 244, (±)—N-(4-Chlorophenyl)-2-(4-(6-fluoroquinolin-4-yl)piperazin-1-yl)pentanamide]
> 250	CCCC(C(=O)NC1(C)CCCCC1)N1CCN(c2ccnc3ccc(F)cc23)CC1 (racemic) [Example 247, (±)-2-(4-(6-Fluoroquinolin-4-yl)piperazin-1-yl)-N-(1-methylcyclohexyl)pentanamide]
> 250	CCC(C(=O)Nc1ccc(Cl)cc1)[C@H]1CC[C@H](Oc2ccnc3cc(C(F)(F)F)ccc23)CC1 (single isomer, unassigned) [Example 83a, N-(4-Chlorophenyl)-2-((trans)-4-((7-(trifluoromethyl)quinolin-4-yl)oxy)cyclohexyl)-2-butanamide]
< 250	CCC(C(=O)Nc1ccc(Cl)cc1)[C@H]1CC[C@H](Oc2ccnc3cc(C(F)(F)F)ccc23)CC1 (single isomer, unassigned) [Example 83b, N-(4-Chlorophenyl)-2-((trans)-4-((7-(trifluoromethyl)quinolin-4-yl)oxy)cyclohexyl)-2-butanamide]
< 50	CC(C(=O)O)c1ccc(C[C@@H](C(=O)Nc2ccc(Cl)cc2)[C@H]2CC[C@@H](c3ccnc4ccccc43)CC2)cc1 (single isomer, unassigned) [Example 87a]
< 50	CCC(C(=O)Nc1ccc(Cl)cc1)[C@H]1CC[C@@H](Oc2cc(C(F)(F)F)nc3ccccc23)CC1 (single isomer, unassigned) [Example 88a, N-(4-Chlorophenyl)-2-((cis)-4-((2-(trifluoromethyl)quinolin-4-yl)oxy)cyclohexyl)butanamide]
< 250	CCC(C(=O)Nc1ccc(Cl)cc1)[C@H]1CC[C@@H](Oc2cc(C(F)(F)F)nc3ccccc23)CC1 (single isomer, unassigned) [Example 88b, N-(4-Chlorophenyl)-2-((cis)-4-((2-(trifluoromethyl)quinolin-4-yl)oxy)cyclohexyl)butanamide]
< 250	CCC(C(=O)Nc1ccc(Cl)cc1)[C@H]1CC[C@@H](Oc2ccnc3ccc(C(F)(F)F)cc23)CC1 (single isomer, unassigned) [Example 89a, N-(4-Chlorophenyl)-2-((cis)-4-((6-(trifluoromethyl)quinolin-4-yl)oxy)cyclohexyl)butanamide]
> 250	CCC(C(=O)Nc1ccc(Cl)cc1)[C@H]1CC[C@@H](Oc2ccnc3ccc(C(F)(F)F)cc23)CC1 (single isomer, unassigned) [Example 89b, N-(4-Chlorophenyl)-2-((cis)-4-((6-(trifluoromethyl)quinolin-4-yl)oxy)cyclohexyl)butanamide]
< 50	CC(C(=O)Nc1ccc(Cl)cc1)N1CCC(Oc2ccc3nccc(Cl)c3c2)CC1 (single isomer, unassigned) [Example 93]
